From ChEMBL document CHEMBL1944551, “An integrated computational workflow for efficient and quantitative modeling of renin inhibitors” (Bioorg Med Chem, 2012) come the findings set out here.

This data set is described as follows: physchem. As to conditions: octanol/buffer.

One may read the logP as the decadic logarithm of the partition coefficient of the neutral form, usually between octanol and water. Turning to `CN(CCCc1ccccc1)C(=O)[C@H]1CNCC(=O)N1c1ccc(CCCOc2cccc(Cl)c2)cc1`, the logP stood at 5.19. The same measure for `CNC(=O)OCCc1ccc(Cl)c(CN(C(=O)[C@H]2CNCC(=O)N2c2ccc(COC(=O)c3ccccc3)cc2)C2CC2)c1`: 4.57. `COCCc1ccc(Cl)c(CN(C(=O)[C@H]2CNCC(=O)N2c2ccc(OCCOc3c(Cl)cc(C)cc3Cl)cc2)C2CC2)c1`: the logP was 6.05. Compound `COCCCc1cc(CN(C(=O)[C@H]2CNCC(=O)N2c2ccc(CCCOc3cccc(Cl)c3)cc2)C2CC2)c(Cl)cn1` gave a logP of 5.29. In the case of `CNCCc1ccc(Cl)c(CN(C(=O)[C@H]2CNCC(=O)N2c2ccc(COC(=O)c3ccccc3)cc2)C2CC2)c1`, the logP was determined as 4.64. For `COc1ccccc1COCCCOc1ccc(N2C(=O)CNC[C@@H]2C(=O)N(Cc2cccc(C)c2C)C2CC2)cc1` the value was 5.06; for `COc1cccc(CN(C(=O)[C@H]2CNCC(=O)N2c2ccc(CCCOc3cccc(Cl)c3)cc2)C2CC2)c1C`, 5.56; for `Cc1cc(Cl)c(OCCOc2ccc(N3C(=O)CNC[C@@H]3C(=O)N(Cc3cc(CNCCF)ccc3Cl)C3CC3)cc2)c(Cl)c1`, 5.77. For `COc1ccccc1COCCCOc1ccc(N2C(=O)CNC[C@@H]2C(=O)N(Cc2ccccc2Cl)C2CC2)cc1` the value was 5.06. For `CNC(=O)Cc1ccc(Cl)c(CN(C(=O)[C@H]2CNCC(=O)N2c2ccc(OCCCOCc3ccccc3OC)cc2)C2CC2)c1` the value was 4.48; for `COc1c(CN(C(=O)[C@H]2CNCC(=O)N2c2ccc(CCCOc3c(F)ccc(F)c3F)cc2)C2CC2)ccnc1C`, 4.12; for `O=C(OCc1ccc(N2C(=O)CNC[C@@H]2C(=O)N(Cc2cc(CNC3CC3)ccc2Cl)C2CC2)cc1)c1ccccc1`, 5.2.

Compound `Cc1cc(Cl)c(OCCOc2ccc(N3C(=O)CNC[C@@H]3C(=O)N(Cc3cc(CNCC(F)F)ccc3Cl)C3CC3)cc2)c(Cl)c1` displayed a logP of 6.07. For `CNC(=O)CCc1ccc(Cl)c(CN(C(=O)[C@H]2CNCC(=O)N2c2cnc(OCCCOCc3ccccc3OC)nc2)C2CC2)c1`, the logP was determined as 2.56. For `O=C([C@H]1CNCC(=O)N1c1ccc(OCCCOCc2ccccc2)cc1)N(Cc1cc(CCNC2CC2)ccc1Cl)C1CC1` the value was 5.66; for `COc1ccccc1COCCCOc1ccc(N2C(=O)CNC[C@@H]2C(=O)N(Cc2cc(CCNC(C)=O)ccc2Cl)C2CC2)cc1`, 4.61. On to `Cc1cc(Cl)c(OCCOc2ccc(N3C(=O)CNC[C@@H]3C(=O)N(Cc3cccc(Cl)c3)C3CC3)cn2)c(Cl)c1`, for which the lipophilicity (logP) turned out to be 5.04. The same measure for `COCCc1ccc(Cl)c(CN(C(=O)[C@H]2CNCC(=O)N2c2ccc(COC(=O)c3ccccc3)cc2)C2CC2)c1`: 4.95; for `COC(=O)NCCc1ccc(Cl)c(CN(C(=O)[C@H]2CNCC(=O)N2c2cnc(OCCCOCc3ccccc3OC)nc2)C2CC2)c1`: 2.88; for `CNC(=O)CCc1ccc(Cl)c(CN(C(=O)[C@H]2CNCC(=O)N2c2ccc(COC(=O)c3ccccc3)cc2)C2CC2)c1`: 4.24. For `O=C(CC(F)(F)F)NCc1ccc(Cl)c(CN(C(=O)[C@H]2CNCC(=O)N2c2ccc(CCCOc3c(F)ccc(F)c3F)cc2)C2CC2)c1` the value was 5.91; for `CCNCCc1ccc(Cl)c(CN(C(=O)[C@H]2CNCC(=O)N2c2ccc(OCCCOCc3ccccc3)cc2)C2CC2)c1`, 5.35. The same measure for `COc1ccccc1COCCCOc1ncc(N2C(=O)CNC[C@@H]2C(=O)N(Cc2cccc(Cl)c2Cl)C2CC2)cn1`: 3.64; for `COc1ccccc1COCCCOc1ncc(N2C(=O)CNC[C@@H]2C(=O)N(Cc2cc(CCNC(=O)COC(C)(C)C)ccc2Cl)C2CC2)cn1`: 3.6; for `COc1ccccc1COCCCOc1ccc(N2C(=O)CNC[C@@H]2C(=O)N(Cc2cc(CCNC3CC3)ccc2Cl)C2CC2)cc1`: 5.62. Compound `CNCc1ccc(Cl)c(CN(C(=O)[C@H]2CNCC(=O)N2c2ccc(OCCCOCc3ccccc3OC)cc2)C2CC2)c1` displayed a logP of 4.88. For `O=C(OCc1ccc(N2C(=O)CNC[C@@H]2C(=O)N(Cc2cc(CNCCF)ccc2Cl)C2CC2)cc1)c1ccccc1` the value was 4.66. For `COc1ccccc1COCCCOc1ncc(N2C(=O)CNC[C@@H]2C(=O)N(Cc2cc(CNC(C)=O)ccc2Cl)C2CC2)cn1` the value was 2.51; for `CCC(=O)NCc1ccc(Cl)c(CN(C(=O)[C@H]2CNCC(=O)N2c2ccc(OCCCOCc3ccccc3)cc2)C2CC2)c1`, 5.04; for `COC(=O)NCCc1ccc(Cl)c(CN(C(=O)[C@H]2CNCC(=O)N2c2ccc(OCCOc3c(Cl)cc(C)cc3Cl)nc2)C2CC2)c1`, 4.84.

`Cc1cc(Cl)c(OCCOc2ccc(N3C(=O)CNC[C@@H]3C(=O)N(Cc3cccc(C)c3C)C3CC3)cn2)c(Cl)c1`: the logP was 5.01. The same measure for `COC(=O)NCCc1ccc(Cl)c(CN(C(=O)[C@H]2CNCC(=O)N2c2ccc(COC(=O)c3ccccc3)cc2)C2CC2)c1`: 4.57; for `COC(=O)NCc1ccc(Cl)c(CN(C(=O)[C@H]2CNCC(=O)N2c2ccc(OCCCOCc3ccccc3)cc2)C2CC2)c1`: 4.85. The same measure for `COc1ccccc1COCCCOc1ccc(N2C(=O)CNC[C@@H]2C(=O)N(Cc2ccc(Cl)cc2)C2CC2)cc1`: 5.06. The same measure for `O=C([C@H]1CNCC(=O)N1c1ccc(OCCCOCc2ccccc2)cc1)N(Cc1cc(CCNCC(F)F)ccc1Cl)C1CC1`: 5.43. As for `COCCCc1ccc(Cl)c(CN(C(=O)[C@H]2CNCC(=O)N2c2ccc(OCCCOCc3ccccc3OC)cc2)C2CC2)c1`, the logP was found to be 5.72. In turn, `COCCc1ccc(Cl)c(CN(C(=O)[C@H]2CNCC(=O)N2c2ccc(OCCCOCc3ccccc3OC)cc2)C2CC2)c1` came in with a logP of 5.27. For `O=C(OCc1ccc(N2C(=O)CNC[C@@H]2C(=O)NCc2ccccc2)cc1)c1ccccc1` the value was 3.29. The same measure for `Cc1cc(Cl)c(OCCOc2ccc(N3C(=O)CNC[C@@H]3C(=O)N(C)CCCc3ccccc3)cc2)c(Cl)c1`: 5.12. On to `O=C(CC(F)(F)F)NCCc1ccc(Cl)c(CN(C(=O)[C@H]2CNCC(=O)N2c2ccc(COC(=O)c3ccccc3)cc2)C2CC2)c1`, for which the logP was 5. For `CNCCc1ccc(Cl)c(CN(C(=O)[C@H]2CNCC(=O)N2c2ccc(OCCCOCc3ccccc3OC)cc2)C2CC2)c1` the value was 4.97; for `COc1ccccc1COCCCOc1ncc(N2C(=O)CNC[C@@H]2C(=O)N(Cc2ccc(Cl)cc2)C2CC2)cn1`, 3.05; for `CNCc1ccc(Cl)c(CN(C(=O)[C@H]2CNCC(=O)N2c2ccc(COC(=O)c3ccccc3)cc2)C2CC2)c1`, 4.55. The same measure for `CNCCc1ccc(Cl)c(CN(C(=O)[C@H]2CNCC(=O)N2c2ccc(CCCOc3c(F)ccc(F)c3F)cc2)C2CC2)c1`: 5.63; for `COCCCc1ccc(Cl)c(CN(C(=O)[C@H]2CNCC(=O)N2c2ccc(CCCOc3c(F)ccc(F)c3F)cc2)C2CC2)c1`: 6.39; for `CN(CCc1ccccc1)C(=O)[C@H]1CNCC(=O)N1c1ccc(OCCCOCc2ccccc2)cc1`: 3.95. For `CN(Cc1ccccc1)C(=O)[C@H]1CNCC(=O)N1c1ccc(CCCOc2c(F)ccc(F)c2F)cc1` the value was 4.49; for `CNCc1ccc(Cl)c(CN(C(=O)[C@H]2CNCC(=O)N2c2ccc(CCCOc3c(F)ccc(F)c3F)cc2)C2CC2)c1`, 5.55. Compound `COc1ccccc1COCCCOc1ccc(N2C(=O)CNC[C@@H]2C(=O)N(C)Cc2ccccc2Cl)cc1` came in with a logP of 4.41. For `O=C(OCc1ccc(N2C(=O)CNC[C@@H]2C(=O)N(Cc2cc(CCNC3CC3)ccc2Cl)C2CC2)cc1)c1ccccc1` the value was 5.29; for `CCNCc1ccc(Cl)c(CN(C(=O)[C@H]2CNCC(=O)N2c2ccc(OCCOc3c(Cl)cc(C)cc3Cl)cc2)C2CC2)c1`, 5.99.

Compound `O=C(OCc1ccc(N2C(=O)CNC[C@@H]2C(=O)N(Cc2ccccc2Cl)C2CC2)cc1)c1ccccc1` gave a logP of 4.73. For `CCNC(=O)Cc1ccc(Cl)c(CN(C(=O)[C@H]2CNCC(=O)N2c2cnc(OCCCOCc3ccccc3OC)nc2)C2CC2)c1` the value was 2.81; for `CNC(=O)Cc1ccc(Cl)c(CN(C(=O)[C@H]2CNCC(=O)N2c2ccc(COC(=O)c3ccccc3)cc2)C2CC2)c1`, 4.15; for `CNC(=O)OCCc1ccc(Cl)c(CN(C(=O)[C@H]2CNCC(=O)N2c2ccc(OCCCOCc3ccccc3OC)cc2)C2CC2)c1`, 4.9. Turning to `Cc1cc(Cl)c(OCCOc2ccc(N3C(=O)CNC[C@@H]3C(=O)N(C)CCc3ccccc3)cn2)c(Cl)c1`, the logP is 3.85. The compound `COC(=O)NCCc1ccc(Cl)c(CN(C(=O)[C@H]2CNCC(=O)N2c2ccc(OCCCOCc3ccccc3OC)cc2)C2CC2)c1` gave a logP of 4.9. For `CN(Cc1ccccc1Cl)C(=O)[C@H]1CNCC(=O)N1c1ccc(CCCOc2c(F)ccc(F)c2F)cc1` the value was 5.07; for `COC(=O)NCc1ccc(Cl)c(CN(C(=O)[C@H]2CNCC(=O)N2c2ccc(CCCOc3c(F)ccc(F)c3F)cc2)C2CC2)c1`, 5.48; for `CNC(=O)OCCc1ccc(Cl)c(CN(C(=O)[C@H]2CNCC(=O)N2c2ccc(OCCOc3c(Cl)cc(C)cc3Cl)nc2)C2CC2)c1`, 4.84. The same measure for `Cc1cc(Cl)c(OCCOc2ccc(N3C(=O)CNC[C@@H]3C(=O)N(Cc3cccc(Cl)c3)C3CC3)cc2)c(Cl)c1`: 5.87; for `COc1cccc(CN(C(=O)[C@H]2CNCC(=O)N2c2ccc(OCCCOCc3ccccc3)cc2)C2CC2)c1C`: 4.76.

In the case of `CC(=O)NCc1ccc(Cl)c(CN(C(=O)[C@H]2CNCC(=O)N2c2ccc(OCCCOCc3ccccc3)cc2)C2CC2)c1`, the logP was determined as 4.57.

Regarding `COc1cccc(CN(C(=O)[C@H]2CNCC(=O)N2c2ccc(OCCOc3c(Cl)cc(C)cc3Cl)cc2)C2CC2)c1C`, the logP was determined as 5.49.

Turning to `CNC(=O)Cc1ccc(Cl)c(CN(C(=O)[C@H]2CNCC(=O)N2c2ccc(OCCCOCc3ccccc3)cc2)C2CC2)c1`, the logP was found to be 4.53. Consider `CCNCCc1ccc(Cl)c(CN(C(=O)[C@H]2CNCC(=O)N2c2cnc(OCCCOCc3ccccc3OC)nc2)C2CC2)c1`, for which the logP is 3.3. For `CCNC(=O)Cc1ccc(Cl)c(CN(C(=O)[C@H]2CNCC(=O)N2c2ccc(COC(=O)c3ccccc3)cc2)C2CC2)c1` the value was 4.49; for `COCCc1ccc(Cl)c(CN(C(=O)[C@H]2CNCC(=O)N2c2ccc(CCCOc3c(F)ccc(F)c3F)cc2)C2CC2)c1`, 5.94.
